This data set can be described thus: Solubility of API and excipient in the solvent ethanol. The class given is physicochemical. The source says: The API-Excipient-Solvent selection was important to this process. The specific API chosen was soluble in the solvent; however the excipient was insoluble in the same solvent. The API-Excipient combination was such that the API molecules easily nucleate on the surface of the excipient. Use of low supersaturation stopped primary nucleation, and ensures the presence of heterogeneous nuclei alone. These nuclei grew further during their stay inside the column. Tuning of residence time and supersaturation helps in tuning of the loading (weight of API per unit weight of product) of excipient particles with drug.
An exemplary embodiment was implemented with Acetaminophen-D-mannitol-Ethanol as a sample API-Excipient-Solvent system. Acetaminophen was soluble in ethanol; however D-mannitol was insoluble in ethanol.

Structures are written as SMILES.

On to `OC[C@@H](O)[C@@H](O)[C@H](O)[C@H](O)CO` [D-mannitol], for which the Solubility in ethanol result is reported as “insoluble”.

For the compound `CC(=O)Nc1ccc(O)cc1` [Acetaminophen], the Solubility in ethanol result is on record as “soluble”.

The values above are taken from patent publication US20160279246A1, “METHODS AND SYSTEMS FOR CONTINUOUS HETEROGENEOUS CRYSTALLIZATION” (Massachusetts Institute of Technology, priority 2015, published 2016).
